Reference: US20090175788A1, “RADIOLABELLED LIGAND FOR THE GLYCINE 1 TRANSPORTER” (priority 2006, published 2009)

Assays:
[1] = molecular target: T1, glycine transporter subtype 1 (GlyT1) (Sus scrofa, UniProt A0A287AJD7); experiment: PET imaging with pharmacological challenges (blocking of Compound A uptake by a selective GlyT1 inhibitor); assay type: in vivo; conditions: pig
T1 construct: from tissue; host or cells: brain of living anaesthetised pig (Yorkshire/Danish Landrace), in vivo PET
Protocol: (§1) The animals (pig, Yorkshire/Danish Landrace (˜40 Kg; n=2) were housed singly in thermostatically controlled (20° C.) and naturally illuminated stalls. They were scanned under terminal anaesthesia (ketamine induced isoflurane anaesthesia) on different days. The left femoral artery and vein of each animal were surgically cannulated using catheters (Avanti® size 4F-7F). Blood samples were collected from the femoral artery and the radiolabelled and non-labelled agents were injected into the femoral vein. Animals were placed supine in a Siemens ECAT EXACT HR tomograph, with the head immobilised in a custom-made holding device. During the study, blood pH, pCO2 and pO2 levels were monitored and maintained within the normal physiological range. In addition, BP and heart rate were recorded throughout the study. Compound A was administered intravenously into the femoral vein as a 1 minute bolus injection. PET scanning and arterial blood sampling was commenced upon start of the radioligand administration.
In a first study, two sequential high specific activity iv radioligand Compound A administrations were performed in same animal on the same day.
(§2) The PET data were analysed by using tracer kinetic modeling techniques to derive estimates of the tissue delivery (K1) and partition coefficient (PET volume of distribution—Vd). An input function representing the concentration of unchanged radiotracer in plasma was generated using discrete measures of the total plasma radioactivity and HPLC measures determining the parent radiotracer fraction. A generic tracer kinetic model (DEPICT) which estimates the tissues impulse response function was fitted to each of the individual tissue time activity curves to derive the appropriate parameters for each region (K1,Vd) (R. N. Gunn, S. R. Gunn, V. J. Cunningham. Cereb Blood Flow Metab. 2001, 21(6), 635-52; R. N. Gunn, S. R. Gunn, F. E. Turkheimer, J. A. Aston, V. J. Cunningham. J Cereb Blood Flow Metab. 2002, 22(12), 1425-39).

[2] = molecular target: T1, glycine transporter subtype 1 (GlyT1); experiment: PET imaging with Compound A in pig brain; assay type: in vivo
Protocol: as §1, §2

T1 sequence (A0A287AJD7 1-654): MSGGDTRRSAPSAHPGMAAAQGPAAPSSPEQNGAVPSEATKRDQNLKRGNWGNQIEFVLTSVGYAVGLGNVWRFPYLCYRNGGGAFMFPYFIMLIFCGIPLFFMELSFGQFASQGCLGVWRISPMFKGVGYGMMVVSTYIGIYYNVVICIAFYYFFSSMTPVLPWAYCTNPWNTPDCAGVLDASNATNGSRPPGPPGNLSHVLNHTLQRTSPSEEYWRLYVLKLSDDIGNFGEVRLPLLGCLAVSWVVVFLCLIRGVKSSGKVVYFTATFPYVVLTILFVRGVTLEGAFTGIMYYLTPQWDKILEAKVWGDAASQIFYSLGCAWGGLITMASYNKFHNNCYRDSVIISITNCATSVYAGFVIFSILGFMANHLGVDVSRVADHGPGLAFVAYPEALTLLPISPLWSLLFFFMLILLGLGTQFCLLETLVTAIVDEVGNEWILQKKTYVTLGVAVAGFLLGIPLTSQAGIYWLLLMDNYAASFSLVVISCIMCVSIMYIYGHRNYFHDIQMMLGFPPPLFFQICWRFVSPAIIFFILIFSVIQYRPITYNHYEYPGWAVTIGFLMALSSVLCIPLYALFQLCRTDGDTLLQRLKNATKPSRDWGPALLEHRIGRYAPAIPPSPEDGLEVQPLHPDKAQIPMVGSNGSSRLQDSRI

| Structure (SMILES) | effect on Compound A uptake in the brain ([1]; escalating iv doses 0.001, 0.01 and 0.1 mg/kg, 5 min prior to Compound A) | GlyT1 saturation (occupancy) ([1]; high dose 0.5 mg/kg iv) | effect on specific uptake of radiotracer Compound A ([1]; high iv dose 0.5 mg/kg, 5 minutes prior to Compound A) | ED50 ([1]; increasing iv doses, PET, read-out: intravenous ED50 (change in Compound A derived Vd)) | effect of pretreatment on K1 of Compound A ([1]; iv pretreatment) | regional brain distribution ([2]; pig brain, PET, compared with the known distribution of GlyT1) | time of peak brain uptake of radioactivity after administration ([2]; pig brain, iv, PET) | brain entry of radiotracer ([2]; pig, iv 1 minute bolus, PET 0 to 90 min) | Extraction fraction (K1) ([2]; pig, stable across brain regions, tracer kinetic model (DEPICT)) |
| --- | --- | --- | --- | --- | --- | --- | --- | --- | --- |
| CN1CCCC[C@H]1[C@@H](NC(=O)c1cccc(C(F)(F)F)c1Cl)c1ccccc1 [2-chloro-N—[(S)-[(2S)-1-methyl-2-piperidinyl](phenyl)methyl]-3-(trifluoromethyl)benzamide] | dose-dependent decrease of compound A uptake in the brain | near complete GlyT1 saturation | the specific uptake of radiotracer was blocked | 0.0225 mg/kg | not altered |  |  |  |  |
| Cc1cccc(C)c1C(=O)NC(c1ccccc1)C1(N(C)[11CH3])CCCC1 (stereo not drawn) [Compound A, [^11C—N-methyl]-N-[[1-(dimethylamino)cyclopentyl](phenyl)methyl]-2,6-dimethylbenzamide] |  |  |  |  |  | higher accumulation in mid-brain, thalamus and cerebellum compared to cortical regions | 25 min | readily enters the pig brain | 0.06 min⁻¹ |
